These results are taken from US20250152516A1, “COMPRESSIBLE SODIUM CAPRATE FORMULATIONS” (AstraZeneca AB, priority 2022, published 2025).

Entries after “also recorded” stand apart in the source; their conditions may differ. l = locked nucleic acid (LNA); [5mC] = 5-methylcytosine; d = 2'-deoxy (DNA)

Common to all, as to format: physicochemical
Data set [1] is described as follows: Compaction properties (tabletability, tablet tensile strength, compaction simulator) of sodium caprate forms. The settings on record: tablets of each form; particle sizes about 37-53, 150-300, 600-710 μm; FIGS. 5A-5C. As to the method:
The tabletability of different particle sizes and forms of sodium caprate was obtained by measuring the tensile strength of tablets compressed using a compaction simulator. FIGS. 5A-5C show the results of tabletability with laboratory-scale amounts of sodium caprate with particle sizes of about 37 to 53 μm, of about 150 to 300 μm, and of about 600 to 710 μm, respectively.
Tablets were produced with each of the sodium caprate forms, and compaction properties were assessed.

Test in data set [2]: as above
To be noted: tablets of each form; high pressure = above approximately 50 MPa.

Data set [3] is described as follows: Dissolution profile of tablets comprising Form A sodium caprate and a macromolecule. The settings on record: Example 12 Formulation 1 tablets; pH 6.8 phosphate buffer at 37° C.; FIGS. 20A-20B. From the text:
The dissolution profiles of tablets comprising Form A sodium caprate and an ASO, prepared according to Example 12, Formulation 1, are illustrated in FIG. 20A. […] (mimicking the small intestinal condition). This allows for maximum absorption enhancement. The dissolution profile of tablets comprising Form A sodium caprate and the MEDI7219 Peptide is illustrated in FIG. 20B. […] (mimicking the small intestinal condition).

A short description of data set [4]: Karl Fischer titration, water content of sodium caprate forms. To be noted: forms prepared as in Example 1. How it is done: In some embodiments, the water content of sodium caprate is determined by Karl Fischer titration. Karl Fischer titration uses coulometric or volumetric titration to determine trace amounts of water in a sample. Methods of performing Karl Fischer titration are known to the skilled artisan. In some embodiments, Form A or Form B sodium caprate has a lower water content compared with Form C or Form D water content. In some embodiments, the sodium caprate is Form A sodium caprate characterized by a water content by Karl Fischer titration below 2%, below 1.9%, below 1.8%, below 1.7%, below 1.6%, below 1.5%, or below 1.4%. In some embodiments, Form A sodium caprate has a water content of about 0.4% to about 1.7%. Form B sodium caprate has a water content ≤1%. Form C sodium caprate has a water content of about 2% to about 3%, and Form D sodium caprate has a water content of about 2.5% to about 4%. In some embodiments, the sodium caprate used for making the oral tablet has a water content of less than about 2% as measured by Karl Fischer titration. In some embodiments, the sodium caprate has a water content of less than about 1.5%. In some embodiments, the sodium caprate has a water content of about 1%, about 1.1%, about 1.2%, about 1.3%, about 1.4%, about 1.5%, about 1.6%, about 1.7%, about 1.8%, about 1.9%, or about 2.0%. […]

`CCCCCCCCCC(=O)[O-].[Na+]` [Form A, sodium caprate]: in data set [1], the “compaction properties / tabletability” value is given as “best compaction properties”. In data set [2], the “sticking tendency during tableting” value was “no observable sticking at high pressure”. In addition, the “release (dissolution) from tablets” value in data set [3] was “rapid and concomitant release”.

Consider `CCCCCCCCCC(=O)[O-].[Na+]` [Form B, sodium caprate], for which the “compaction properties / tabletability” value in data set [1] is on record as “poor tabletability”. Further, the “sticking tendency during tableting” value in data set [2] was “high sticking tendency”.

With `CCCCCCCCCC(=O)[O-].[Na+]` [Form C, sodium caprate], the “Amount of Water (%)” value in data set [4] is on record as 2-3%. Moreover, the “compaction properties / tabletability” value in data set [1] is “poor tabletability; also recorded: worst tabletability”. Moreover, the “sticking tendency during tableting” value in data set [2] is recorded as “high sticking tendency”.

As to `CCCCCCCCCC(=O)[O-].[Na+]` [Form D, sodium caprate], the “compaction properties / tabletability” value in data set [1] is “poor tabletability; also recorded: worst tabletability”. In data set [2], the “sticking tendency during tableting” value is listed as “high sticking tendency”.

Turning to “GM5CAttctaatagcAGM5C (antisense GCATTCTAATAGCAGC; sugars from the 5' end l3 d10 l3, [5mC] at 2, 16, backbone not given here) [MALAT1, antisense oligonucleotide targeting MALAT1, with LNA nucleosides and 5-methylcytidine, reference compound]”, in data set [3], the “release (dissolution) from tablets” value is “rapid and concomitant release”.
